pEC50: −log10 of the molar value. Read-outs that look alike come from different tables or passages of the source. Starred links: 1 amine or outer side, 2 acyl side, 3 side chain; linkers in the order of their positions; H or OH if unused. Non-standard residues stand in square brackets, D forms with d. Residues, ends and D or L forms follow the SMILES beside them. Groups on a side chain read outwards from the residue. *: point of attachment. C20 diacid = O=C(O)CCCCCCCCCCCCCCCCCCC(=O)*; C18 diacid = O=C(O)CCCCCCCCCCCCCCCCC(=O)*; γGlu = O=C(O)[C@H](CCC(=O)[*:2])N[*:1]; αMeF = C[C@](N)(Cc1ccccc1)C(=O)O; AEEA = NCCOCCOCC(=O)O; Aib = CC(C)(N)C(=O)O
What was measured:
[1] = molecular target: human GLP-1 receptor (hGLP-1R) (Homo sapiens, UniProt P43220); assay: cAMP production (HTRF) in CHO cells expressing hGLP-1R; format: cell-based; parameters: expressed in transfected cells; conditions: for pEC50: read-out: hGLP-1R EC50; for % Relative Potency Ratio: Table 6, % GLP-1R activity relative to GLP-1 / % GlucR activity relative to glucagon
human GLP-1 receptor (hGLP-1R), sequence (P43220 24-463): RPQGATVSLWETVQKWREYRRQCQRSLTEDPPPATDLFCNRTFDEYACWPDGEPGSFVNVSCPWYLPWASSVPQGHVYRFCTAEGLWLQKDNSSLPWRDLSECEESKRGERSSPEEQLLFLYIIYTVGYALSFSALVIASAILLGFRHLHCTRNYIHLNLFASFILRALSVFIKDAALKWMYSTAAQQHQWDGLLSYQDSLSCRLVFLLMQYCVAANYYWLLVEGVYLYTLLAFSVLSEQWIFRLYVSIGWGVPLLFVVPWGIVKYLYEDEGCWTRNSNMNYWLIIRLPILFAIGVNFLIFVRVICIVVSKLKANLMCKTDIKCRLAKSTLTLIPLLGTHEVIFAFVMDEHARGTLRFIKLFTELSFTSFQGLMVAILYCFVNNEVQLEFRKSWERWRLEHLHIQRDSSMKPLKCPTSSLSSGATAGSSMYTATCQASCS
Summary of the method: (§1)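 Read-out: HTRF cAMP (anti-cAMP cryptate donor, cAMP-d2 acceptor in conjugate/lysis buffer), converted to % Delta F and fitted by 4-parameter logistic for EC50. Cell densities were 1×10^5 cells/mL (hGLP-1R) or 2×10^5 cells/mL (hGCGR). Stimulation lasted 30 min at room temperature.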

[2] = molecular target: human glucagon receptor (hGCGR) (Homo sapiens, UniProt P47871); assay: cAMP production (HTRF) in CHO cells expressing hGCGR; format: cell-based; parameters: expressed in transfected cells; conditions: Table 6, peptides modified at position 17, cAMP in CHO hGCGR cells, geometric mean; for pEC50: read-out: hGluc-R EC50
human glucagon receptor (hGCGR), sequence (P47871 26-477): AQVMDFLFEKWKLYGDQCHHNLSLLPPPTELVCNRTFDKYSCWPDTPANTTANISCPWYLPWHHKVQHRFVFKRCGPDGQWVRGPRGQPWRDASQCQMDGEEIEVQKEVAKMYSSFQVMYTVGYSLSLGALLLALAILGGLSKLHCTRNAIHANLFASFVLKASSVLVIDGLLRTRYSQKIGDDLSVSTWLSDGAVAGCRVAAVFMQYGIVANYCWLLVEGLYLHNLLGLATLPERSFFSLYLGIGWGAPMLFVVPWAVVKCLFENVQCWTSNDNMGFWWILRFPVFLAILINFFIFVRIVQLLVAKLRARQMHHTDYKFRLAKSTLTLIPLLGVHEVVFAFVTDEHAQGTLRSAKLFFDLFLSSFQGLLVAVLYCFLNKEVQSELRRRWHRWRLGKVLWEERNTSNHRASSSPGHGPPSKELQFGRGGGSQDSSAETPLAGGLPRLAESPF
Summary of the method: as §1

[3] = Table 6, peptides modified at position 17, cAMP in CHO hGLP-1R cells, geometric mean

Row | SMILES | pEC50 [1, 3] | % Relative Potency Ratio [1] | pEC50 [2] | EC50 ([1]; hGLP-1R EC50 (pM), Table 6, peptides modified at position 17, cAMP in CHO hGLP-1R cells, geometric mean) [pM] | EC50 ([2]; hGluc-R EC50 (pM)) [pM]
1 | CC(C)C[C@H](NC(=O)[C@H](Cc1c[nH]c2ccccc12)NC(=O)[C@H](CCCNC(=N)N)NC(=O)[C@@H](NC(=O)[C@H](Cc1ccccc1)NC(=O)[C@H](CC(=O)O)NC(=O)[C@H](CCC(N)=O)NC(=O)[C@H](C)NC(=O)[C@H](CCCNC(=N)N)NC(=O)[C@H](CCCCNC(=O)COCCOCCNC(=O)COCCOCCNC(=O)CC[C@H](NC(=O)CCCCCCCCCCCCCCCCCCC(=O)O)C(=O)O)NC(=O)[C@H](CCCCN)NC(=O)[C@H](CC(=O)O)NC(=O)[C@H](CC(C)C)NC(=O)[C@](C)(Cc1ccccc1)NC(=O)[C@H](CCCCN)NC(=O)[C@H](CO)NC(=O)[C@@H](NC(=O)[C@H](CC(=O)O)NC(=O)[C@H](CO)NC(=O)[C@@H](NC(=O)[C@H](Cc1ccccc1)NC(=O)[C@@H](NC(=O)CNC(=O)[C@H](CCC(N)=O)NC(=O)C(C)(C)NC(=O)[C@@H](N)Cc1c[nH]cn1)[C@@H](C)O)[C@@H](C)O)C(C)C)C(C)C)C(=O)N[C@@H](CC(C)C)C(=O)NC(C)(C)C(=O)N[C@@H](CCC(=O)O)C(N)=O [Peptide 441] (H-H[Aib]QGTFTSDVSK[αMeF]LDKK([AEEA-AEEA-γGlu-C20 diacid])RAQDFVRWLL[Aib]E-NH2; N-terminus assumed) | 10.20 | 2.3 | 10.14 |  | 
2 | CC(C)C[C@H](NC(=O)[C@H](Cc1c[nH]c2ccccc12)NC(=O)[C@H](CCCNC(=N)N)NC(=O)[C@@H](NC(=O)[C@H](Cc1ccccc1)NC(=O)[C@H](CC(=O)O)NC(=O)[C@H](CCC(N)=O)NC(=O)[C@H](C)NC(=O)[C@H](CCCNC(=N)N)NC(=O)[C@H](CCCCNC(=O)COCCOCCNC(=O)COCCOCCNC(=O)CC[C@H](NC(=O)CCCCCCCCCCCCCCCCC(=O)O)C(=O)O)NC(=O)[C@H](CCCCN)NC(=O)[C@H](CC(=O)O)NC(=O)[C@H](CC(C)C)NC(=O)[C@](C)(Cc1ccccc1)NC(=O)[C@H](CCCCN)NC(=O)[C@H](CO)NC(=O)[C@@H](NC(=O)[C@H](CC(=O)O)NC(=O)[C@H](CO)NC(=O)[C@@H](NC(=O)[C@H](Cc1ccccc1)NC(=O)[C@@H](NC(=O)CNC(=O)[C@H](CCC(N)=O)NC(=O)C(C)(C)NC(=O)[C@@H](N)Cc1c[nH]cn1)[C@@H](C)O)[C@@H](C)O)C(C)C)C(C)C)C(=O)N[C@@H](CC(C)C)C(=O)N[C@@H](CCC(=O)O)C(=O)NC(C)(C)C(=O)NCC(N)=O [Peptide 442] (H-H[Aib]QGTFTSDVSK[αMeF]LDKK([AEEA-AEEA-γGlu-C18 diacid])RAQDFVRWLLE[Aib]G-NH2; N-terminus assumed) | 10.72 | 3.7 | 10.45 |  | 
3 | CC(C)C[C@H](NC(=O)[C@H](Cc1c[nH]c2ccccc12)NC(=O)[C@H](CCCNC(=N)N)NC(=O)[C@@H](NC(=O)[C@H](Cc1ccccc1)NC(=O)[C@H](CC(=O)O)NC(=O)[C@H](CCCNC(=N)N)NC(=O)[C@H](C)NC(=O)[C@H](CCCNC(=N)N)NC(=O)[C@H](CCCCNC(=O)COCCOCCNC(=O)COCCOCCNC(=O)CC[C@H](NC(=O)CCCCCCCCCCCCCCCCC(=O)O)C(=O)O)NC(=O)[C@H](CCCCN)NC(=O)[C@H](CC(=O)O)NC(=O)[C@H](CC(C)C)NC(=O)[C@](C)(Cc1ccccc1)NC(=O)[C@H](CCCCN)NC(=O)[C@H](CO)NC(=O)[C@@H](NC(=O)[C@H](CC(=O)O)NC(=O)[C@H](CO)NC(=O)[C@@H](NC(=O)[C@H](Cc1ccccc1)NC(=O)[C@@H](NC(=O)CNC(=O)[C@H](CCC(N)=O)NC(=O)C(C)(C)NC(=O)[C@@H](N)Cc1c[nH]cn1)[C@@H](C)O)[C@@H](C)O)C(C)C)C(C)C)C(=O)N[C@@H](CC(C)C)C(=O)NC(C)(C)C(=O)N[C@@H](CCC(=O)O)C(N)=O [Peptide 443] (H-H[Aib]QGTFTSDVSK[αMeF]LDKK([AEEA-AEEA-γGlu-C18 diacid])RARDFVRWLL[Aib]E-NH2; N-terminus assumed) | 10.69 | 2.2 | 10.65 |  | 
4 | CC(C)C[C@H](NC(=O)[C@H](Cc1c[nH]c2ccccc12)NC(=O)[C@H](CCC(N)=O)NC(=O)[C@@H](NC(=O)[C@H](Cc1ccccc1)NC(=O)[C@H](CC(=O)O)NC(=O)[C@H](CCCNC(=N)N)NC(=O)[C@H](C)NC(=O)[C@H](CCCNC(=N)N)NC(=O)[C@H](CCCCNC(=O)COCCOCCNC(=O)COCCOCCNC(=O)CC[C@H](NC(=O)CCCCCCCCCCCCCCCCC(=O)O)C(=O)O)NC(=O)[C@@H](NC(=O)[C@H](CCC(=O)O)NC(=O)[C@H](CC(C)C)NC(=O)[C@](C)(Cc1ccccc1)NC(=O)[C@H](CCCCN)NC(=O)[C@H](CO)NC(=O)[C@@H](NC(=O)[C@H](CC(=O)O)NC(=O)[C@H](CO)NC(=O)[C@@H](NC(=O)[C@H](Cc1ccccc1)NC(=O)[C@@H](NC(=O)CNC(=O)[C@H](CCC(N)=O)NC(=O)C(C)(C)NC(=O)[C@@H](N)Cc1c[nH]cn1)[C@@H](C)O)[C@@H](C)O)C(C)C)[C@@H](C)O)C(C)C)C(=O)N[C@@H](CC(C)C)C(=O)N[C@@H](CCC(=O)O)C(=O)NC(C)(C)C(=O)NCC(=O)O [Peptide 445] (H-H[Aib]QGTFTSDVSK[αMeF]LETK([AEEA-AEEA-γGlu-C18 diacid])RARDFVQWLLE[Aib]G-OH) |  |  |  | 33 | 684
5 | CC(C)C[C@H](NC(=O)[C@H](Cc1c[nH]c2ccccc12)NC(=O)[C@H](CCCNC(=N)N)NC(=O)[C@@H](NC(=O)[C@H](Cc1ccccc1)NC(=O)[C@H](CC(=O)O)NC(=O)[C@H](CCC(N)=O)NC(=O)[C@H](C)NC(=O)[C@H](CCCNC(=N)N)NC(=O)[C@H](CCCCNC(=O)COCCOCCNC(=O)COCCOCCNC(=O)CC[C@H](NC(=O)CC[C@H](NC(=O)CCCCCCCCCCCCCCCCC(=O)O)C(=O)O)C(=O)O)NC(=O)[C@H](CCCNC(=N)N)NC(=O)[C@H](CC(=O)O)NC(=O)[C@H](CC(C)C)NC(=O)[C@](C)(Cc1ccccc1)NC(=O)[C@H](CCCCN)NC(=O)[C@H](CO)NC(=O)[C@@H](NC(=O)[C@H](CC(=O)O)NC(=O)[C@H](CO)NC(=O)[C@@H](NC(=O)[C@H](Cc1ccccc1)NC(=O)[C@@H](NC(=O)CNC(=O)[C@H](CCC(N)=O)NC(=O)C(C)(C)NC(=O)[C@@H](N)Cc1c[nH]cn1)[C@@H](C)O)[C@@H](C)O)C(C)C)C(C)C)C(=O)N[C@H](C(=O)NC(C)(C)C(=O)N[C@@H](CCC(=O)O)C(N)=O)C(C)C [Peptide 446] (H-H[Aib]QGTFTSDVSK[αMeF]LDRK([AEEA-AEEA-γGlu-γGlu-C18 diacid])RAQDFVRWLV[Aib]E-NH2; N-terminus assumed) | 10.48 | 22.0 | 9.44 |  | 
6 | CC(C)C[C@H](NC(=O)[C@H](Cc1c[nH]c2ccccc12)NC(=O)[C@H](CCCNC(=N)N)NC(=O)[C@@H](NC(=O)[C@H](Cc1ccccc1)NC(=O)[C@H](CC(=O)O)NC(=O)[C@H](CCC(N)=O)NC(=O)[C@H](C)NC(=O)[C@H](CCCNC(=N)N)NC(=O)[C@H](CCCCNC(=O)COCCOCCNC(=O)COCCOCCNC(=O)CC[C@H](NC(=O)CC[C@H](NC(=O)CCCCCCCCCCCCCCCCCCC(=O)O)C(=O)O)C(=O)O)NC(=O)[C@H](CCCNC(=N)N)NC(=O)[C@H](CC(=O)O)NC(=O)[C@H](CC(C)C)NC(=O)[C@](C)(Cc1ccccc1)NC(=O)[C@H](CCCCN)NC(=O)[C@H](CO)NC(=O)[C@@H](NC(=O)[C@H](CC(=O)O)NC(=O)[C@H](CO)NC(=O)[C@@H](NC(=O)[C@H](Cc1ccccc1)NC(=O)[C@@H](NC(=O)CNC(=O)[C@H](CCC(N)=O)NC(=O)C(C)(C)NC(=O)[C@@H](N)Cc1c[nH]cn1)[C@@H](C)O)[C@@H](C)O)C(C)C)C(C)C)C(=O)N[C@H](C(=O)NC(C)(C)C(=O)N[C@@H](CCC(=O)O)C(N)=O)C(C)C [Peptide 447] (H-H[Aib]QGTFTSDVSK[αMeF]LDRK([AEEA-AEEA-γGlu-γGlu-C20 diacid])RAQDFVRWLV[Aib]E-NH2; N-terminus assumed) | 9.77 | 7.8 | 9.18 |  | 
7 | CC(C)C[C@H](NC(=O)[C@H](Cc1c[nH]c2ccccc12)NC(=O)[C@H](CCCNC(=N)N)NC(=O)[C@@H](NC(=O)[C@H](Cc1ccccc1)NC(=O)[C@H](CC(=O)O)NC(=O)[C@H](CCCNC(=N)N)NC(=O)[C@H](C)NC(=O)[C@H](CCCNC(=N)N)NC(=O)[C@H](CCCCNC(=O)COCCOCCNC(=O)COCCOCCNC(=O)CC[C@H](NC(=O)CC[C@H](NC(=O)CCCCCCCCCCCCCCCCC(=O)O)C(=O)O)C(=O)O)NC(=O)[C@H](CCCCN)NC(=O)[C@H](CC(=O)O)NC(=O)[C@H](CC(C)C)NC(=O)[C@](C)(Cc1ccccc1)NC(=O)[C@H](CCCCN)NC(=O)[C@H](CO)NC(=O)[C@@H](NC(=O)[C@H](CC(=O)O)NC(=O)[C@H](CO)NC(=O)[C@@H](NC(=O)[C@H](Cc1ccccc1)NC(=O)[C@@H](NC(=O)CNC(=O)[C@H](CCC(N)=O)NC(=O)C(C)(C)NC(=O)[C@@H](N)Cc1c[nH]cn1)[C@@H](C)O)[C@@H](C)O)C(C)C)C(C)C)C(=O)N[C@@H](CC(C)C)C(=O)NC(C)(C)C(=O)N[C@@H](CCC(=O)O)C(=O)O [Peptide 448] (H-H[Aib]QGTFTSDVSK[αMeF]LDKK([AEEA-AEEA-γGlu-γGlu-C18 diacid])RARDFVRWLL[Aib]E-OH) | 10.27 | 1.1 | 10.54 |  | 

Source: patent publication US20250353891A1 (MEDIMMUNE LIMITED, priority 2022, published 2025)
